Eight molecules from article PMC10999543, “Identification of kinase modulators as host-directed therapeutics against intracellular methicillin-resistant Staphylococcus aureus” (Frontiers in Cellular and Infection Microbiology, 2024) can be followed below.

Data set [1] relates to intracellular MRSA. Type of data set: cell-based, Staphylococcus aureus. Particulars: for %GFP+ rep 1 / z-scoreMRSA+ rep 1: replicate 1; for %GFP+ rep 2 / z-scoreMRSA+ rep 2: replicate 2; for %GFP+ rep 3 / z-scoreMRSA+ rep 3: replicate 3; for z-scoreMRSA+ mean: mean of 3 replicates. The gist of the method: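 Values are z-scores: GFP-positive HeLa percentage and event count per well against plate statistics, minus the mean DMSO z-score. Wells deviating two-fold from controls were left out of plate means. Infection was at a mean MOI of 6.8, with an overnight compound exposure.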

In data set [2] the test system is HeLa cells. The experiment in a line: Compound screen by flow cytometry: HeLa cell count as surrogate readout of cell viability (z-scoreHeLa). As to all read-outs here: test concentration or dose not given here. Type of data set: cell-based, human. Particulars: for cell count rep 1 / z-scoreHeLa rep 1: replicate 1; for cell count rep 2 / z-scoreHeLa rep 2: replicate 2; for cell count rep 3 / z-scoreHeLa rep 3: replicate 3; for z-scoreHeLa mean: mean of 3 replicates. The essentials:
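The viability surrogate was the count of fixed HeLa cells by flow cytometry, converted to z-scores against DMSO controls with values deviating two-fold excluded. Before counting, cells had been infected with MRSA for 1 h and cleared of extracellular bacteria with gentamicin. They were then exposed overnight to kinase inhibitors in triplicate.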

[3] abbreviates: PKIS compounds raw data, MRSA-infected HeLa cells.
Where [4] appears, read: Yes/No: effect without cell death.
[5] abbreviates: compound screen, MRSA-infected HeLa cells.
Setting [6] is: PKIS compounds raw data, HeLa cell count.
The mark [7] stands for this setting: compound screen, HeLa cell count.
Where [8] appears, read: PKIS compound screen raw data, MRSA-infected HeLa cells.
The mark [9] stands for this setting: PKIS compound screen, MRSA-infected HeLa cells.
The mark [10] stands for this setting: PKIS compound screen, Yes/No call (effect without cell death).
The mark [11] stands for this setting: PKIS compound screen, Yes/No call on z-scoreMRSA+.
Setting [12] is: PKIS compound screen raw data, HeLa cell count.
The mark [13] stands for this setting: PKIS compound screen, HeLa cell count.
[14] abbreviates: PKIS compound screen, Yes/No call on z-scoreHeLa.
Setting [15] is: PKIS compound screen, Yes/No call.

Where two headings read alike, the source gives them in different places.
For %GFP+ rep 1 in this document: test concentration or dose not given here.
For %GFP+ rep 2 in this document: test concentration or dose not given here.
For %GFP+ rep 3 in this document: test concentration or dose not given here.
For effect in this document: test concentration or dose not given here.
For z-scoreMRSA+ mean in this document: test concentration or dose not given here.
For z-scoreMRSA+ rep 1 in this document: test concentration or dose not given here.
For z-scoreMRSA+ rep 2 in this document: test concentration or dose not given here.
For z-scoreMRSA+ rep 3 in this document: test concentration or dose not given here.

`CS(=O)(=O)Nc1ccc(N/C=C2\C(=O)Nc3ccccc32)cc1` [GW278681X]: in data set [1] (setting [3]), the “%GFP+ rep 1” value is 11.9%, the “%GFP+ rep 2” value was found to be 13.7% and the “%GFP+ rep 3” value was 12.4%. For the same molecule, in data set [1] (Yes/No call from z-scoreMRSA+), the effect entry was “No”. In addition, the hit entry in data set [1] (setting [4]) is recorded as “No”. Also, in data set [1] (setting [5]), the “z-scoreMRSA+ mean” value is given as -0.46, the “z-scoreMRSA+ rep 1” value is reported as -0.41, the “z-scoreMRSA+ rep 2” value was 0.07 and the “z-scoreMRSA+ rep 3” value is -1.03. Also, in data set [2] (setting [6]), the “cell count rep 1” value turned out to be 4258, the “cell count rep 2” value is recorded as 4720 and the “cell count rep 3” value is 6630. Further, the cell death entry in data set [2] (Yes/No call from z-scoreHeLa) is given as “No”. Moreover, in data set [2] (setting [7]), the z-scoreHeLa mean was -0.10, the “z-scoreHeLa rep 1” value was -0.47, the “z-scoreHeLa rep 2” value is listed as 0.34 and the “z-scoreHeLa rep 3” value is given as -0.16.

As to `Nc1ncnc2occ(-c3ccc(NC(=O)Nc4cc(C(F)(F)F)ccc4F)cc3)c12` [GW770249X], in data set [1] (setting [3]), the “%GFP+ rep 1” value came out at 10.7%, the “%GFP+ rep 2” value turned out to be 11.5% and the “%GFP+ rep 3” value is reported as 11.5%. Besides, in data set [1] (Yes/No call from z-scoreMRSA+), the effect result was “No”. The hit entry in data set [1] (setting [4]) is reported as “No”. Further, in data set [1] (setting [5]), the “z-scoreMRSA+ mean” value is given as -0.92, the “z-scoreMRSA+ rep 1” value was -0.79, the “z-scoreMRSA+ rep 2” value was -0.67 and the “z-scoreMRSA+ rep 3” value is -1.30. In addition, in data set [2] (setting [6]), the “cell count rep 1” value came to 2336, the “cell count rep 2” value came out at 2249 and the “cell count rep 3” value amounted to 3259. The cell death result in data set [2] (Yes/No call from z-scoreHeLa) is reported as “No”. Also, in data set [2] (setting [7]), the z-scoreHeLa mean was -1.83, the “z-scoreHeLa rep 1” value is -2.21, the “z-scoreHeLa rep 2” value is on record as -1.53 and the “z-scoreHeLa rep 3” value is listed as -1.77.

With `CCOc1ccc2c(-c3ccnc(Nc4cccc(C(F)(F)F)c4)n3)cnn2n1` [GW811761X], in data set [1] (setting [8]), the “%GFP+ rep 1” value came to 16.8%, the “%GFP+ rep 2” value was 16.8% and the “%GFP+ rep 3” value is 18.1%. In data set [1] (setting [9]), the “z-scoreMRSA+ mean” value is given as -0.46, the “z-scoreMRSA+ rep 1” value is on record as -0.34, the “z-scoreMRSA+ rep 2” value is -0.52 and the “z-scoreMRSA+ rep 3” value is reported as -0.51. Also, the hit result in data set [1] (setting [10]) is listed as “No”. Also, the effect entry in data set [1] (setting [11]) is on record as “No”. Also, in data set [2] (setting [12]), the “cell count rep 1” value is on record as 25545, the “cell count rep 2” value is given as 40447 and the “cell count rep 3” value was determined as 52915. In data set [2] (setting [13]), the z-scoreHeLa mean turned out to be 1.28, the “z-scoreHeLa rep 1” value was determined as 0.82, the “z-scoreHeLa rep 2” value is given as 1.06 and the “z-scoreHeLa rep 3” value is on record as 1.97. In data set [2] (setting [14]), the cell death result is “No”.

Take `CN(C)c1cc2c(Nc3ccc4c(cnn4Cc4ccccc4)c3)ncnc2cn1` [GW282974X]: the effect result in data set [1] (setting [15]) is recorded as “No”. Also, the hit result in data set [1] (setting [10]) was “No”. Further, in data set [1] (PKIS compound screen), the “z-scoreMRSA+ mean” value was -0.84, the “z-scoreMRSA+ rep 1” value was -0.54, the “z-scoreMRSA+ rep 2” value is -0.77 and the “z-scoreMRSA+ rep 3” value was -1.21. Further, in data set [1] (setting [3]), the “%GFP+ rep 1” value came out at 11.5%, the “%GFP+ rep 2” value is on record as 11.2% and the “%GFP+ rep 3” value worked out at 11.8%. Further, the cell death result in data set [2] (setting [15]) is “No”. In data set [2] (PKIS compound screen), the z-scoreHeLa mean amounted to 1.58, the “z-scoreHeLa rep 1” value is reported as 0.95, the “z-scoreHeLa rep 2” value is reported as 1.79 and the “z-scoreHeLa rep 3” value was found to be 2.01. In data set [2] (setting [6]), the “cell count rep 1” value is 5822, the “cell count rep 2” value is 6633 and the “cell count rep 3” value came to 11155.

In the case of `Cc1cccc(-c2nc(Nc3cccc(C(N)=O)c3)c3ccccc3n2)n1` [GW876019X], in data set [1] (setting [8]), the “%GFP+ rep 1” value is recorded as 11.7%, the “%GFP+ rep 2” value came to 12.9% and the “%GFP+ rep 3” value came out at 16.0%. Further, in data set [1] (setting [9]), the “z-scoreMRSA+ mean” value is on record as -1.70, the “z-scoreMRSA+ rep 1” value is -1.89, the “z-scoreMRSA+ rep 2” value was -1.78 and the “z-scoreMRSA+ rep 3” value is -1.43. Besides, the effect entry in data set [1] (setting [15]) is on record as “No”. Also, the hit entry in data set [1] (setting [10]) is “No”. Also, in data set [1] (setting [11]), the effect result is “No”. In data set [1] (PKIS compound screen), the “z-scoreMRSA+ mean” value was found to be 0.49, the “z-scoreMRSA+ rep 1” value was found to be 0.42, the “z-scoreMRSA+ rep 2” value came to 0.20 and the “z-scoreMRSA+ rep 3” value is recorded as 0.84. In data set [1] (setting [3]), the “%GFP+ rep 1” value is recorded as 29.2%, the “%GFP+ rep 2” value came to 27.1% and the “%GFP+ rep 3” value came out at 31.8%. In addition, in data set [2] (setting [12]), the “cell count rep 1” value turned out to be 25839, the “cell count rep 2” value is 10617 and the “cell count rep 3” value is listed as 8442. In data set [2] (setting [13]), the z-scoreHeLa mean is reported as -1.76, the “z-scoreHeLa rep 1” value is recorded as -0.74, the “z-scoreHeLa rep 2” value was -2.51 and the “z-scoreHeLa rep 3” value is -2.04. Besides, the cell death entry in data set [2] (setting [15]) was “No”. Moreover, in data set [2] (setting [14]), the cell death entry is on record as “No”. In addition, in data set [2] (PKIS compound screen), the z-scoreHeLa mean is -1.99, the “z-scoreHeLa rep 1” value is -2.12, the “z-scoreHeLa rep 2” value was -2.54 and the “z-scoreHeLa rep 3” value is given as -1.32. In data set [2] (setting [6]), the “cell count rep 1” value was 2511, the “cell count rep 2” value is given as 2183 and the “cell count rep 3” value is on record as 3514.

For the molecule `CN(c1ccc(NC(=O)Nc2cccc(Cl)c2)cc1)c1ccnc(N)n1` [GW830707A], in data set [1] (setting [8]), the “%GFP+ rep 1” value was found to be 21.9%, the “%GFP+ rep 2” value turned out to be 21.1% and the “%GFP+ rep 3” value was 22.8%. In data set [1] (Yes/No call from z-scoreMRSA+), the effect result is “No”. Also, in data set [1] (setting [4]), the hit result was “No”. Also, in data set [1] (setting [5]), the “z-scoreMRSA+ mean” value is given as -0.32, the “z-scoreMRSA+ rep 1” value is listed as -0.79, the “z-scoreMRSA+ rep 2” value is -0.37 and the “z-scoreMRSA+ rep 3” value is recorded as 0.18. In data set [2] (setting [12]), the “cell count rep 1” value came out at 2862, the “cell count rep 2” value was found to be 2838 and the “cell count rep 3” value is 4346. For the same molecule, the cell death entry in data set [2] (Yes/No call from z-scoreHeLa) is reported as “No”. For the same molecule, in data set [2] (setting [7]), the z-scoreHeLa mean is given as -0.92, the “z-scoreHeLa rep 1” value is -1.07, the “z-scoreHeLa rep 2” value is -1.13 and the “z-scoreHeLa rep 3” value was -0.56.

For the molecule `Cc1ccc(NC(=O)Nc2ccccc2)cc1-c1ccc(C(=O)Nc2ccncc2)cc1` [GSK1398471A], the effect entry in data set [1] (setting [15]) is recorded as “No”. The hit entry in data set [1] (setting [10]) was “No”. Also, in data set [1] (PKIS compound screen), the “z-scoreMRSA+ mean” value is 2.16, the “z-scoreMRSA+ rep 1” value turned out to be 1.78, the “z-scoreMRSA+ rep 2” value worked out at 2.78 and the “z-scoreMRSA+ rep 3” value turned out to be 1.92. In addition, in data set [1] (setting [3]), the “%GFP+ rep 1” value came out at 36.2%, the “%GFP+ rep 2” value is 40.5% and the “%GFP+ rep 3” value was found to be 37.6%. In addition, in data set [2] (setting [15]), the cell death entry is “No”. In data set [2] (PKIS compound screen), the z-scoreHeLa mean is -2.19, the “z-scoreHeLa rep 1” value was -2.47, the “z-scoreHeLa rep 2” value is reported as -2.21 and the “z-scoreHeLa rep 3” value is given as -1.88. For the same molecule, in data set [2] (setting [6]), the “cell count rep 1” value is recorded as 1939, the “cell count rep 2” value was determined as 2675 and the “cell count rep 3” value is on record as 2624.

As to `O=S(=O)(c1cccc(F)c1)c1ccc(Nc2ncnc3cc(Br)sc23)cc1Cl` [GSK306886A], in data set [1] (setting [3]), the “%GFP+ rep 1” value was 13.2%, the “%GFP+ rep 2” value worked out at 13.8% and the “%GFP+ rep 3” value is listed as 13.0%. In addition, the effect result in data set [1] (Yes/No call from z-scoreMRSA+) is “No”. The hit entry in data set [1] (setting [4]) is listed as “No”. In data set [1] (setting [5]), the “z-scoreMRSA+ mean” value is on record as -0.25, the “z-scoreMRSA+ rep 1” value is on record as 0.00934, the “z-scoreMRSA+ rep 2” value was found to be 0.10 and the “z-scoreMRSA+ rep 3” value is on record as -0.85. In data set [2] (setting [6]), the “cell count rep 1” value stood at 2697, the “cell count rep 2” value is on record as 1761 and the “cell count rep 3” value stood at 5093. Further, in data set [2] (Yes/No call from z-scoreHeLa), the cell death result is “No”. Moreover, in data set [2] (setting [7]), the z-scoreHeLa mean is reported as -1.56, the “z-scoreHeLa rep 1” value is reported as -1.88, the “z-scoreHeLa rep 2” value is -1.89 and the “z-scoreHeLa rep 3” value is listed as -0.89.
